# Measurements: US8778927B2, “Smoothened antagonism for the treatment of hedgehog pathway-related disorders” (Novartis AG, priority 2008, dated 2014)
# Several values for one entry are separate records, joined by “and”; a condition that tells them apart may be missing. Equal values may be shown once. Entries after “also recorded” stand apart in the source; their conditions may differ.
# Key:
# [1] = test system: Ptch+/−p53−/− medulloblastoma allograft; experiment: Ptch+/−p53−/− medulloblastoma allograft model, continuous dosing; format: in vivo, mouse; conditions: 100 mg/kg bid, 25 days, FIG. 1
# Description: (§1) Mouse medulloblastoma cells (1.0−5.0×10^6), dissociated directly from tumor fragments originally derived from spontaneously arising medulloblastomas in Ptch+/−p53−/−, Ptch+/−Hic+/− or Ptch+/− mice, were inoculated subcutaneously into the right flank of Harlan nu/nu mice. Treatment was initiated approximately 7-10 days post implantation. Animals were randomized into treatment groups with similar mean tumor volumes that ranged from approximately 250-300 mm3. Tumor volumes (mm3) and body weights (g) were recorded two or three times per week from all groups for analysis. Dose was body weight adjusted at time of dosing. Comparisons between treatment groups was performed using a non-parametric Kruskal-Wallis/Wilcoxon Rank Sum Test.
# Tumors were calipered in two dimensions, and the volumes were calculated using the formula: (length×width2)/2, where length is the longer of the two measurements and width is the shorter one. Percent treatment/control (% T/C) values were calculated using the following formula: % T/C=100×ΔTf−i/ΔCf−i if ΔTf−i>0, % T/T0=100×ΔTf−i/T0 if ΔTf−i<0 (regression). A partial responder (PR) was defined as an animal whose tumor was less than 50% of the initial tumor volume by the end of the study. An animal with no palpable tumor by the end of study is defined as a complete responder (CR). […]
# [2] = test system: Ptch+/−Hic+/− medulloblastoma allograft; experiment: Ptch+/−Hic+/− medulloblastoma allograft model, continuous dosing; format: in vivo, mouse; conditions: for number of sustained complete regressions: dosed day 10 to day 56, day 56
# Description: as §1
# (§2) Tumors were calipered in two dimensions, and the volumes were calculated using the formula: (length×width2)/2, where length is the longer of the two measurements and width is the shorter one. Percent treatment/control (% T/C) values were calculated using the following formula: % T/C=100×ΔTf−i/ΔCf−i if ΔTf−i>0, % T/T0=100×ΔTf−i/T0 if ΔTf−i<0 (regression). A partial responder (PR) was defined as an animal whose tumor was less than 50% of the initial tumor volume by the end of the study. An animal with no palpable tumor by the end of study is defined as a complete responder (CR).
# Treatments started on day 7 post implantation (5 million cells/animal). Compound 1 was administered po at 5 mg/kg bid, 10 mg/kg bid, 20 mg/kg qd, 20 mg/kg bid, 40 mg/kg bid and 80 mg/kg bid for the length of study. Compound 2 was administered at 100 mg/kg bid for the length of study. Vehicle control of Compound 1 was 0.5% methylcellulose 0.5% Tween 80 in water. The initial group size consisted of 8 animals. The vehicle group was taken down 10 days after treatment (tumors greater than 10% of mouse body weight).
# Sustained regressions listed in the Table 1 represent number of complete responses still present at the end of study on day 47.
# Two additional Smo inhibitors, Compound 3 and Compound 4 were evaluated in follow-up studies in the Ptch+/−Hic+/− model upon continous dosing.
# [3] = test system: Ptch+/− medulloblastoma allograft; experiment: Ptch+/− medulloblastoma allograft model, continuous dosing; format: in vivo, mouse; conditions: 100 mg/kg bid, day 48
# Description: as §1, §2
# Treatments started on day 7 post implantation (5 million cells/animal). Compound 1 was administered po at 10 mg/kg qd, 20 mg/kg qd, 40 mg/kg qd, 80 mg/kg qd and 160 mg/kg qd for the length of study. Compound 2 was administered at 100 mg/kg bid for the length of study. Vehicle control of Compound 1 was 0.5% methylcellulose 0.5% Tween 80 in water. The initial group size consisted of 8 animals. The vehicle group was taken down 7 days after treatment (tumors greater than 10% of mouse body weight). Similar resistance was seen to that observed with the Ptc+/−Hic+/− model, with a subset of the complete responders growing back and others showing complete regression (Table 2). Sustained regression listed in Table 2 represent number of complete regressions still present at the end of study on day 48.
# [4] = test system: Ptch+/−Hic+/− medulloblastoma allograft; experiment: combination of Smo inhibitor and PI3K inhibitor in Ptch+/−Hic+/− medulloblastoma allograft model; format: in vivo, mouse
# Description: Mouse medulloblastoma cells (1.0-5.0×10^6), dissociated directly from tumor fragments originally derived from spontaneously arising medulloblastomas in Ptch+/-p53-/-, Ptch+/-Hic+/- or Ptch+/- mice, were inoculated subcutaneously into the right flank of Harlan nu/nu mice. Treatment was initiated approximately 7-10 days post implantation. Animals were randomized into treatment groups with similar mean tumor volumes that ranged from approximately 250-300 mm3. Tumor volumes (mm3) and body weights (g) were recorded two or three times per week from all groups for analysis. Dose was body weight adjusted at time of dosing. Comparisons between treatment groups was performed using a non-parametric Kruskal-Wallis/Wilcoxon Rank Sum Test. Tumors were calipered in two dimensions, and the volumes were calculated using the formula: (length×width2)/2, where length is the longer of the two measurements and width is the shorter one. […] A partial responder (PR) was defined as an animal whose tumor was less than 50% of the initial tumor volume by the end of the study. An animal with no palpable tumor by the end of study is defined as a complete responder (CR). Next, a combination of Compound 1 and Compound A was explored in the Ptch+/-Hic+/- medulloblastoma allograft model. […] Animals treated with vehicle control and with compound A had to be sacrificed around day 20 and 25, respectively, because their tumor volume reached 1500 mm3. […] Similar results were obtained for animals treated with Compound 1 alone for the first 10 days, followed by single agent treatment with Compound A (data not shown). […] Next, a combination of Compound 1 and Compound B was explored in the Ptch+/-Hic+/- medulloblastoma allograft model. […] Animals treated with vehicle control and with compound B reached the endpoint around day 12 to 15, respectively, because their tumor volume reached 700 mm3.
# [5] = test system: sensitive medulloblastoma tumor cells; experiment: ex-vivo medulloblastoma proliferation assay (3H thymidine, 48 h), sensitive tumor cells; format: cell-based; conditions: Mus musculus, Sensitive tumor, Table 3
# Procedure: (§3) The effect of statins (e.g., simvastatin, flustatin) on the proliferation of medulloblastoma cells derived from sensitive and resistant Ptch+/− cells was evaluated by using an “ex-vivo medulloblastoma proliferation assay.” Using Ptch+/−p53−/−, Ptch+/−Hic+/− or Ptch+/− medulloblastoma tumors freshly harvested from allografted nude mice, we have developed a short-term 48 h proliferation assay that enables us to assess the in vitro potency of Smo inhibitors. The read-out for proliferation uses incorporation of 3H thymidine. The assay reflects the in vivo sensitivity of tumor cells to Compound 1.
# (§4) The effect of PI3K inhibitors (e.g., compounds such as Compound A) on the proliferation of medulloblastoma cells derived from sensitive and resistant medulloblastoma cells was evaluated by using an “ex-vivo medulloblastoma proliferation assay,” as described above.
# [6] = test system: resistant medulloblastoma tumor cells; experiment: ex-vivo medulloblastoma proliferation assay (3H thymidine, 48 h), resistant tumor cells; format: cell-based, mouse
# Procedure: as §3, §4
# [7] = test system: Akt and S6 phosphorylation; experiment: Western blot of ex-vivo medulloblastoma assay; format: cell-based, mouse; conditions: sensitive and resistant cells, FIG. 5
# [8] = Mus musculus, Resistant tumor, Table 3
compound,measurement,setting,value
"COc1cc(OC)cc(C(=O)Nc2ccc(Cl)c(-c3nc4cc(N(C)C)ccc4[nH]3)c2)c1 [Compound 2, N-[4-Chloro-3-(5-dimethylamino-1H-benzoimidazol-2-yl)-phenyl]-3,5-dimethoxy-benzamide, reference compound]",tumor response on continuous dosing,[1],"initially caused regression, followed by tumor regrowth"
same,sustained regressions (complete responses still present at end of study),"[2]; 100 mg/kg bid po, day 47",0/8
same,sustained regressions (complete regressions still present at end of study),[3],0/8
"Cc1c(Cc2ccccc2)nnc(N2CCN(c3cnc(C(C)(C)O)cn3)[C@H](C)C2)c1C [Compound 3, 2-[(R)-4-(6-Benzyl-4,5-dimethyl-pyridazin-3-yl)-2-methyl-3,4,5,6-tetrahydro-2H-[1,2]bipyrazinyl-5′-yl]-propan-2-ol]",number of sustained complete regressions,[2]; 40 mg/kg bid,3/8
same,number of sustained complete regressions,[2]; 40 mg/kg qd,0/8
same,number of sustained complete regressions,[2]; 60 mg/kg qd,0/8
same,number of sustained complete regressions,[2]; 80 mg/kg qd,0/8
same,number of sustained complete regressions,[2]; 100 mg/kg qd,3/8
same,tumor response on continuous dosing,"[2]; follow-up studies, continuous dosing",initially induced tumor regression followed by tumor regrowth in the presence of compound
"Nc1cc(C(F)(F)F)c(-c2cc(N3CCOCC3)nc(N3CCOCC3)n2)cn1 [Compound A, 5-(2,6-di-morpholin-4-yl-pyrimidin-4-yl)-4-trifluoromethyl-pyridin-2-ylamine]",effect on tumor growth,"[4]; 60 mg/kg qd, FIG. 6A",only a moderate effect on tumor growth compared to vehicle control
same,time to endpoint (tumor volume >1500 mm3),"[4]; 60 mg/kg qd, FIG. 6B",~25 days
same,IC50,[5],200 nM
same,IC50,[6]; [8],220 nM
same,IC50,"[6]; Mus musculus, ptch+/− Hic+/−, Resistant, Table 4",300 nM
same,IC50,"[6]; ptch+/− Hic+/−, Resistant, Table 4",170 nM and 150 nM
same,"inhibition of proliferation, sensitive compared with resistant tumors",[6]; sensitive and resistant tumors,inhibited both sensitive and resistant tumors with similar IC50s
same,inhibition of Akt and S6 phosphorylation,[7],inhibits Akt and S6 phosphorylation in both sensitive and resistant cells; also recorded: inhibited Akt and S6 phosphorylation both in sensitive and resistant tumors at similar concentrations
"Cn1c(=O)n(-c2ccc(C(C)(C)C#N)cc2)c2c3cc(-c4cnc5ccccc5c4)ccc3ncc21 [Compound B, 2-methyl-2-[4-(3-methyl-2-oxo-8-quinolin-3-yl-2,3-dihydro-imidazo[4,5-c]quinolin-1-yl)-phenyl]-propionitrile]",effect on tumor growth,"[4]; 40 mg/kg qd, FIG. 7A",no effect on tumor growth compared to vehicle control
same,time to endpoint (tumor volume >700 mm3),"[4]; 40 mg/kg qd, FIG. 7B",~15 days
"CCC(C)(C)C(=O)O[C@H]1C[C@@H](C)C=C2C=C[C@H](C)[C@H](CC[C@@H]3C[C@@H](O)CC(=O)O3)[C@H]21 [Simvastatin, reference compound]",IC50,[5],4 nM
same,IC50,[6]; [8],4 nM
